Measured values as given in US12338220B2, “Antiviral pyrazolopiridinone compounds” (Novartis AG, priority 2019, dated 2025).
Read-outs that look alike come from different tables or passages of the source.

Tests used:
[1] = target: CMV-polymerase (Human cytomegalovirus (strain AD169) (HHV-5) (Human herpesvirus 5), UniProt P08546); experiment: biochemical
[2] = system: CMV; experiment: microbe, parasite or virus in culture; format: cell-based; details: Human betaherpesvirus 5, 72 h, read-out: CMV-Luc Cellular EC50, NN-NHDF cells, MOI 1, 72 hrs
[3] = read-out: CMV-polymerase Biochemical IC50
[4] = CMV-polymerase Biochemical IC50

SMILES: COc1cccc(NS(=O)(=O)C2(CN3CCc4c(C(=O)NCc5ccc(C#N)cc5)nn(C)c4C3=O)CC2)n1 [Example 163, N-(4-Cyanobenzyl)-6-((1-(N-(6-methoxypyridin-2-yl)sulfamoyl)cyclopropyl)methyl)-1-methyl-7-oxo-4,5,6,7-tetrahydro-1H-pyrazolo[3,4-c]pyridine-3-carboxamide]
- IC50 [1, 3]: 2 nM
- EC50 [2]: 67 nM

SMILES: CN(C)/C=N/S(=O)(=O)C1(CN2CCc3c(C(=O)NCc4ccc(Cl)cc4)nn(C)c3C2=O)CC1 [Example 122, (E)-N-(4-chlorobenzyl)-6-((1-(N-((dimethylamino)methylene)sulfamoyl)cyclopropyl)methyl)-1-methyl-7-oxo-4,5,6,7-tetrahydro-1H-pyrazolo[3,4-c]pyridine-3-carboxamide]
- IC50 [1, 3]: 7 nM
- EC50 [2]: 298 nM

SMILES: Cn1nc(C(=O)NCc2ccc(C#N)cc2)c2c1C(=O)N(CC1(S(=O)(=O)N3CCC(C)(O)C3)CC1)CC2 (single isomer, unassigned) [Example 130, (R)- or (S)-N-(4-Cyanobenzyl)-6-((1-((3-hydroxy-3-methylpyrrolidin-1-yl)sulfonyl)cyclopropyl)methyl)-1-methyl-7-oxo-4,5,6,7-tetrahydro-1H-pyrazolo[3,4-c]pyridine-3-carboxamide]
- IC50 [1, 3]: 7 nM
- EC50 [2]: 163 nM

SMILES: Cn1nc(-c2cn(CC3CCC(F)(F)CC3)nn2)c2c1C(=O)N(CC1(S(=O)(=O)C3CC3)CC1)CC2 [Example 36, 6-((1-(Cyclopropylsulfonyl)cyclopropyl)methyl)-3-(1-((4,4-difluorocyclohexyl)methyl)-1H-1,2,3-triazol-4-yl)-1-methyl-5,6-dihydro-1H-pyrazolo[3,4-c]pyridin-7(4H)-one]
- IC50 [1, 3]: 5 nM
- EC50 [2]: 571 nM

SMILES: Cn1nc(C(=O)NCc2ccc(C#N)cc2)c2c1C(=O)N(CC1(S(=O)(=O)NC3CC3)CC1)CC2 [Example 129, N-(4-cyanobenzyl)-6-((1-(N-cyclopropylsulfamoyl)cyclopropyl)methyl)-1-methyl-7-oxo-4,5,6,7-tetrahydro-1H-pyrazolo[3,4-c]pyridine-3-carboxamide]
- IC50 [1, 3]: 16 nM
- EC50 [2]: 247 nM

SMILES: Cn1nc(C(=O)NCc2ccc(C#N)cc2)c2c1C(=O)N(CC1(S(=O)(=O)C(C)(C)C#N)CC1)CC2 [Example 59, N-(4-Cyanobenzyl)-6-((1-((2-cyanopropan-2-yl)sulfonyl)cyclopropyl)methyl)-1-methyl-7-oxo-4,5,6,7-tetrahydro-1H-pyrazolo[3,4-c]pyridine-3-carboxamide]
- IC50 [1, 4]: 1 nM
- EC50 [2]: 33 nM

SMILES: Cn1nc(C(=O)NCc2ccc(C#N)c(F)c2)c2c1C(=O)N(CC1(S(=O)(=O)C3CC3)CC1)CC2 [Example 9, N-(4-Cyano-3-fluorobenzyl)-6-((1-(cyclopropylsulfonyl)cyclopropyl)methyl)-1-methyl-7-oxo-4,5,6,7-tetrahydro-1H-pyrazolo[3,4-c]pyridine-3-carboxamide]
- IC50 [1, 3]: 1 nM
- EC50 [2]: 31 nM

SMILES: Cn1nc(C(=O)NCc2ccc(C#N)cc2)c2c1C(=O)N(CC1(S(=O)(=O)C(C)(C)CN3CCOCC3)CC1)CC2 [Example 61, N-(4-Cyanobenzyl)-1-methyl-6-((1-((2-methyl-1-morpholinopropan-2-yl)sulfonyl)cyclopropyl)methyl)-7-oxo-4,5,6,7-tetrahydro-1H-pyrazolo[3,4-c]pyridine-3-carboxamide]
- IC50 [1, 3]: 6 nM
- EC50 [2]: 145 nM

SMILES: Cn1nc(C(=O)NCc2ccc(C#N)cc2)c2c1C(=O)N(CC1(S(=O)(=O)NCCO)CC1)CC2 [Example 145, N-(4-Cyanobenzyl)-6-((1-(N-(2-hydroxyethyl)sulfamoyl)cyclopropyl)methyl)-1-methyl-7-oxo-4,5,6,7-tetrahydro-1H-pyrazolo[3,4-c]pyridine-3-carboxamide]
- IC50 [1, 3]: 14 nM
- EC50 [2]: 303 nM

SMILES: Cn1nc(C(=O)NCc2ccc(C#N)cc2)c2c1C(=O)N(CC1(S(=O)(=O)C3(CN)COC3)CC1)CC2 [Example 174, 6-((1-((3-(aminomethyl)oxetan-3-yl)sulfonyl)cyclopropyl)methyl)-N-(4-cyanobenzyl)-1-methyl-7-oxo-4,5,6,7-tetrahydro-1H-pyrazolo[3,4-c]pyridine-3-carboxamide]
- IC50 [1, 4]: 6 nM
- EC50 [2]: 212 nM

SMILES: Cn1nc(C(=O)NCc2ccc(Cl)cc2)c2c1C(=O)N(CC1(S(=O)(=O)NCC(C)(C)O)CC1)CC2 [Example 152, N-(4-Chlorobenzyl)-6-((1-(N-(2-hydroxy-2-methylpropyl)sulfamoyl)cyclopropyl)methyl)-1-methyl-7-oxo-4,5,6,7-tetrahydro-1H-pyrazolo[3,4-c]pyridine-3-carboxamide]
- IC50 [1, 3]: 30 nM
- EC50 [2]: 834 nM

SMILES: Cn1nc(C(=O)NCc2ccc(C#N)cc2)c2c1C(=O)N(CC1(S(=O)(=O)C(C)(C)CN3CC4(COC4)C3)CC1)CC2 [Example 67, N-(4-Cyanobenzyl)-1-methyl-6-((1-((2-methyl-1-(2-oxa-6-azaspiro[3.3]heptan-6-yl)propan-2-yl)sulfonyl)cyclopropyl)methyl)-7-oxo-4,5,6,7-tetrahydro-1H-pyrazolo[3,4-c]pyridine-3-carboxamide]
- IC50 [1, 3]: 2 nM
- EC50 [2]: 82 nM

SMILES: Cn1nc(C(=O)NCc2ccc(C#N)cc2)c2c1C(=O)N(CC1(S(=O)(=O)C(C)(C)CN3CC4CC3CO4)CC1)CC2 (stereo not drawn) [Example 64, 6-((1-((1-(2-Oxa-5-azabicyclo[2.2.1]heptan-5-yl)-2-methylpropan-2-yl)sulfonyl)cyclopropyl)methyl)-N-(4-cyanobenzyl)-1-methyl-7-oxo-4,5,6,7-tetrahydro-1H-pyrazolo[3,4-c]pyridine-3-carboxamide]
- IC50 [1, 3]: 4 nM
- EC50 [2]: 106 nM

SMILES: Cn1nc(C(=O)NCc2ccc(Cl)cc2)c2c1C(=O)N(CC1(S(=O)(=O)C(C)(C)[C@@H](O)CO)CC1)CC2 [Example 190, (S)—N-(4-Chlorobenzyl)-6-((1-((3,4-dihydroxy-2-methylbutan-2-yl)sulfonyl)cyclopropyl)methyl)-1-methyl-7-oxo-4,5,6,7-tetrahydro-1H-pyrazolo[3,4-c]pyridine-3-carboxamide]
- IC50 [1, 3]: 1 nM
- EC50 [2]: 19 nM

SMILES: Cc1cc(CNC(=O)c2nn(C)c3c2CCN(CC2(S(=O)(=O)C4CC4)CC2)C3=O)ccc1C#N [Example 11, N-(4-Cyano-3-methylbenzyl)-6-((1-(cyclopropylsulfonyl)cyclopropyl)methyl)-1-methyl-7-oxo-4,5,6,7-tetrahydro-1H-pyrazolo[3,4-c]pyridine-3-carboxamide]
- IC50 [1, 3]: 17 nM
- EC50 [2]: 214 nM

SMILES: Cn1nc(C(=O)NCc2ccc(C#N)cc2)c2c1C(=O)N(CC1(S(=O)(=O)C3CCOCC3)CC1)CC2 [Example 169, N-(4-Cyanobenzyl)-1-methyl-7-oxo-6-((1-((tetrahydro-2H-pyran-4-yl)sulfonyl)cyclopropyl)methyl)-4,5,6,7-tetrahydro-1H-pyrazolo[3,4-c]pyridine-3-carboxamide]
- IC50 [1, 3]: 14 nM
- EC50 [2]: 201 nM

SMILES: Cn1nc(C(=O)NCc2ccc(Cl)cc2)c2c1C(=O)N(CC1(S(=O)(=O)NC(C)(CO)CO)CC1)CC2 [Example 153, N-(4-Chlorobenzyl)-6-((1-(N-(1,3-dihydroxy-2-methylpropan-2-yl)sulfamoyl)cyclopropyl)methyl)-1-methyl-7-oxo-4,5,6,7-tetrahydro-1H-pyrazolo[3,4-c]pyridine-3-carboxamide]
- IC50 [1, 3]: 20 nM
- EC50 [2]: 305 nM

SMILES: Cn1nc(C(=O)NCc2ccc(C#N)cc2)c2c1C(=O)N(CC1(S(=O)(=O)N3CC[C@@H](N)C3)CC1)CC2 [Example 141, (R)-6-((1-((3-Aminopyrrolidin-1-yl)sulfonyl)cyclopropyl)methyl)-N-(4-cyanobenzyl)-1-methyl-7-oxo-4,5,6,7-tetrahydro-1H-pyrazolo[3,4-c]pyridine-3-carboxamide]
- IC50 [1, 3]: 13 nM
- EC50 [2]: 51 nM

SMILES: Cn1nc(C(=O)NCc2ccc(C#N)cc2)c2c1C(=O)N(CC1(S(=O)(=O)C(C)(C)CN)CC1)CC2 [Example 70, 6-((1-((1-Amino-2-methylpropan-2-yl)sulfonyl)cyclopropyl)methyl)-N-(4-cyanobenzyl)-1-methyl-7-oxo-4,5,6,7-tetrahydro-1H-pyrazolo[3,4-c]pyridine-3-carboxamide]
- IC50 [1, 4]: 3 nM
- EC50 [2]: 61 nM

SMILES: CO[C@@H]1CCN(CC(C)(C)S(=O)(=O)C2(CN3CCc4c(C(=O)NCc5ccc(C#N)cc5)nn(C)c4C3=O)CC2)C1 [Example 62, (R)-N-(4-cyanobenzyl)-6-((1-((1-(3-methoxypyrrolidin-1-yl)-2-methylpropan-2-yl)sulfonyl)cyclopropyl)methyl)-1-methyl-7-oxo-4,5,6,7-tetrahydro-1H-pyrazolo[3,4-c]pyridine-3-carboxamide]
- IC50 [1, 3]: 4 nM
- EC50 [2]: 136 nM

SMILES: COc1cccnc1NS(=O)(=O)C1(CN2CCc3c(C(=O)NCc4ccc(C#N)cc4)nn(C)c3C2=O)CC1 [Example 159, N-(4-Cyanobenzyl)-6-((1-(N-(3-methoxypyridin-2-yl)sulfamoyl)cyclopropyl)methyl)-1-methyl-7-oxo-4,5,6,7-tetrahydro-1H-pyrazolo[3,4-c]pyridine-3-carboxamide]
- IC50 [1, 3]: 13 nM
- EC50 [2]: 298 nM

SMILES: N#Cc1ccc(CNC(=O)c2nn(C3CC3)c3c2CCN(CC2(S(=O)(=O)C4CC4)CC2)C3=O)cc1 [Example 43, N-(4-Cyanobenzyl)-1-cyclopropyl-6-((1-(cyclopropylsulfonyl)cyclopropyl)methyl)-7-oxo-4,5,6,7-tetrahydro-1H-pyrazolo[3,4-c]pyridine-3-carboxamide]
- IC50 [1, 4]: 2 nM
- EC50 [2]: 66 nM

SMILES: N#Cc1ccc(CNC(=O)c2nn(CC3(O)CC3)c3c2CCN(CC2(S(=O)(=O)C4CC4)CC2)C3=O)cc1 [Example 228, N-(4-Cyanobenzyl)-6-((1-(cyclopropylsulfonyl)cyclopropyl)methyl)-1-((1-hydroxycyclopropyl)methyl)-7-oxo-4,5,6,7-tetrahydro-1H-pyrazolo[3,4-c]pyridine-3-carboxamide]
- IC50 [1, 4]: 2 nM
- EC50 [2]: 51 nM

SMILES: Cc1cccnc1NS(=O)(=O)C1(CN2CCc3c(C(=O)NCc4ccc(C#N)cc4)nn(C)c3C2=O)CC1 [Example 164, N-(4-Cyanobenzyl)-1-methyl-6-((1-(N-(3-methylpyridin-2-yl)sulfamoyl)cyclopropyl)methyl)-7-oxo-4,5,6,7-tetrahydro-1H-pyrazolo[3,4-c]pyridine-3-carboxamide]
- IC50 [1, 3]: 6 nM
- EC50 [2]: 157 nM
